Common to all, as to assay: inhibition of tumour cell growth, NCI panel, 48 h
The test system of assay [1] is UACC-62 melanoma.
Assay [2] relates to SR leukemia.
For assay [3], the system named is SW-620 colon.
Assay [4] deals with HOP-92 NSCLC.
For assay [5], the system named is NCI-H522 lung.
The test system of assay [6] is HT29 colon.
Assay [7] has as its system HCT-15 colon.
For assay [8], the system named is 786-0 renal.
Assay [9] concerns NCI-H460 lung.
Assay [10] has as its system KM12 colon.
Assay [11] concerns UACC-257 melanoma.

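Step 1: Grow cells in 96-well plates. Step 2: Expose to compound for 48 hours at 5 concentrations. Step 3: Interpolate endpoints linearly; if unreached, use highest concentration. At the TGI there is no net growth.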

As for `COC(=O)/C(=C\c1ccco1)P(=O)(OC)OC`, the TGI in [1] is more than 100 µM; in assay [2], more than 100 µM; in [3], more than 100 µM; in assay [4], 91.9 µM; in assay [5] it was 5.52 µM; in [6] it was 69.7 µM. Besides, the TGI in assay [7], in [8], in [9], in assay [10] and in assay [11] was more than 100 µM throughout.
Turning to `COc1cc(C(c2cccc3ccccc23)N2C(=O)CCC2C(=O)NCc2ccccc2)cc(OC)c1OC` (stereo not given), the TGI in assay [1], in [2], in assay [3], in assay [4], in [5] and in [6] was more than 100 µM throughout. Moreover, the TGI in [7], in assay [8], in assay [9], in assay [10] and in [11] was more than 100 µM each time.
For the compound `CC(C)C(C/C=C1/CC(CO)(COC(=O)C2CCCCC2)OC1=O)C(C)C` (stereo not given), the TGI in assay [1] is more than 100 µM; in assay [2], more than 100 µM; in assay [3] it was 42.5 µM; in [4] it was 29.8 µM; in assay [5] it was 34.1 µM; in assay [6], 75.4 µM. Besides, the TGI in assay [7] was 39.6 µM; in assay [8], 26.9 µM; in [9] it was 89.6 µM; in assay [10] it was 55.3 µM; in assay [11] it was 78.7 µM.
Take `COc1ccc(/C(=N/Nc2nc3ccccc3[nH]2)C(=O)O)cc1`: the TGI in assay [1], in [2], in assay [3], in [4], in assay [5] and in [6] was more than 100 µM each time. In addition, the TGI in [7], in [8], in [9], in [10] and in assay [11] was more than 100 µM in each case.
For `CCOC(=O)/C(C#N)=C(/NNc1ccccc1)c1ccncc1C(=O)O`, the TGI in assay [1], in assay [2], in assay [3], in assay [4], in assay [5] and in [6] was more than 100 µM throughout. In addition, the TGI in assay [7], in assay [8], in assay [9], in assay [10] and in assay [11] was more than 100 µM each time.
For `COc1ccc2c(-c3ccc(OCCN(C)C)cc3)c(Oc3ccc(Cl)cc3)c(=O)oc2c1`, the TGI in assay [1] is 7.52 µM; in assay [2], 5.06 µM; in assay [3], more than 46.8 µM; in assay [4], 32.5 µM; in [5] it was 12.1 µM; in [6], more than 46.7 µM. For the same compound, the TGI was 15.5 µM in assay [7]; 6.32 µM in assay [8]; more than 42.4 µM in [9]; 25.1 µM in assay [10]; 3.75 µM in [11].
Turning to `N#Cc1c(Nc2nc3ccccc3s2)c2ccccc2n2c1nc1ccccc12`, the TGI in [1], in [2], in assay [3], in assay [4], in assay [5] and in assay [6] was more than 100 µM in each case. Also, the TGI in assay [7], in [8], in [9], in [10] and in assay [11] was more than 100 µM throughout.
Regarding `ONC1=Nc2ccccc2OCc2cc(Br)c(Br)cc2COc2ccccc2N=C1NO`, the TGI in assay [1] was 35.7 µM; in assay [2] it was 15.2 µM; in assay [3] it was more than 48.3 µM; in [4], 32 µM; in assay [5], 41.9 µM; in assay [6], more than 43.5 µM. Also, the TGI was more than 44.4 µM in assay [7]; more than 44.3 µM in assay [8]; 30.2 µM in assay [9]; more than 46 µM in assay [10]; 56.6 µM in assay [11].
With `CCOC(=O)C(NC(=O)CC)(Nc1ccc(S(=O)(=O)Nc2nc(C)cc(C)n2)cc1)C(F)(F)F` (stereo not given), the TGI in assay [1], in assay [2], in assay [3], in assay [4], in assay [5] and in assay [6] was more than 100 µM throughout. Besides, the TGI in [7], in assay [8], in assay [9], in assay [10] and in assay [11] was more than 100 µM in each case.
As to `CCOC(=O)c1c(N2CCOCC2)[nH]c(=O)c(C(c2cccs2)c2c(O)c(C(=O)OCC)c(N3CCOCC3)[nH]c2=O)c1O`, the TGI in assay [1], in assay [2], in [3], in assay [4], in assay [5] and in assay [6] was more than 100 µM in each case. Moreover, the TGI in assay [7], in assay [8], in [9], in assay [10] and in [11] was more than 100 µM each time.
Take `COc1cc(/C=N\NC(=O)C[N+](C)(C)C)cc(OC)c1OC`: the TGI in [1], in assay [2], in assay [3], in assay [4], in [5] and in assay [6] was more than 10 µM throughout. For the same compound, the TGI in [7], in [8], in [10] and in [11] was more than 10 µM each time.
Turning to `CCn1c2ccc(O)c(C(=O)OC)c2c2cc3ccccc3c(O)c21`, the TGI in [1] was more than 100 µM; in assay [2], 57.6 µM; in [4], 21.3 µM; in [5], 41.2 µM; in assay [6], 56.2 µM; in [7], 56 µM. Besides, the TGI was 30.7 µM in assay [8], 54.9 µM in assay [9], 33.6 µM in assay [10] and more than 100 µM in assay [11].
As for `O=S(=O)(O)c1cc(O)c2c(O)c(N=Nc3cccc4ccccc34)c(S(=O)(=O)O)cc2c1`, the TGI in assay [1], in assay [2], in [3], in [4], in assay [5] and in assay [6] was more than 100 µM in each case. The TGI in assay [7], in assay [8], in [10] and in assay [11] was more than 100 µM each time.
